# Measured values taken from patent publication US7049071B2, “Detection of DNA damaging agents” (University of Manchester Institute of Science and Technology, priority 1997, dated 2006).
# Where “and” joins values, the source holds several entries; their conditions need not be identical. Identical values can stand only once.
# Columns and labels:
# Format in all cases: cell-based, Saccharomyces cerevisiae
# RAD54 promoter [1] = test: Western blot of yeast protein extracts with anti-GFP antibody; conditions: yeast cells transformed with pWDH443 or pWDH444, induced with MMS
# Source text: Protein extracts from untransformed yeast cells and yeast cells transformed with both pWDH443 and pWDH444 were used in a Western blot analysis using anti-GFP antibody. GFP was not detected in untransformed cells and was only detected at low levels in uninduced transformed cells.
# RAD54 promoter [2] = test: Whole cell GFP fluorescence of FF18984 transformed with yEGFP-444 or pWDH444; conditions: for Brightness (BU) + MMS, average: average of three; for Brightness (BU) + MMS: single measurements
# Method: (§1) A stationary phase culture of cells grown in SD medium was used as the inoculum source. Aliquots (30 μl) of cells were inoculated into 3 ml of SD in 15 ml test tubes. Half of the tubes were then supplemented with 0.01% MMS (the remaining tubes left as controls). The tubes were incubated at 25° C. for 16 h on an orbital shaker at 120 rpm, then transferred to an ice-box whilst maintaining agitation. The cells were then transferred to 1.5 ml eppendorf tubes, harvested by centrifugation (10 s), washed twice in sterile distilled water, and resuspended in 250 μl extraction buffer.
# (§2) For whole cell fluorescent measurements, the washed cells were transferred directly to cuvettes containing 2.75 ml sterile distilled water.
# Fluorescence measurements were performed with a Perkin Elmer LS50 Fluorescence Spectrometer. The excitation and emission wavelengths were set to 488nm and 511 nm, respectively, with a slit width of 10 nm. To correct for variations in cell number/protein extraction efficiency, light absorption was recorded for each cuvette at either 600 nm (for whole cells) or 280 nm (for extracts). The fluorescence values obtained from the fluorometer were then divided by the absorption readings to give the “brightness value”, an arbitrary unit independent of sample concentration. Other data handling details are dealt with either in the text or in the
# The assessment of GFP fluorescence in whole cells was performed essentially as described in 1.2 (above).
# RAD54 promoter [3] = test: Fluorescence assay of yeast transformed with pWDH443 or pWDH444 (RAD54 promoter linked to S65T GFP), whole cells or cell extracts
# Method: Light emitted by GFP at 511 nm (after excitation at 488 nm) from yeast cells transformed with pWDH443 and pWDH444 and expressing GFP was measured in a fluorimeter in the absence (controls) or presence of compounds known to induce DNA damage such as Methyl Methane Sulphonate (MMS). Samples were assayed as whole cells or as cell extracts.
# Yeast strains Y485 and Y486 in haploid form or Y485/486 in diploid form were in this Example (see above).
# as §1, with “Half of the tubes were then supplemented with 0.01% MMS (the remaining tubes left as controls).” left out
# as §2
# For cell extract studies, 100μl of 400–600nm diameter glass beads were added to the tubes of cells which were then placed in a BIO 101 Fastprep FP120 to mechanically disrupt the cells. Following centrifugation for 30 s, the supernatant was transferred to a clean tube. The pellet of beads was washed in a further 250 μl of extraction buffer and this was added to the supernatant from the previous extraction. 200 μl of the pooled extract in 300 μl of water was then transferred to a cuvette.
# Fluorescence measurements were performed with a Perkin Elmer LS50 Fluorescence Spectrometer. The excitation and emission wavelengths were set to 488nm and 511 nm, respectively, with a slit width of 10 nm. To correct for variations in cell number/protein extraction efficiency, light absorption was recorded for each cuvette at either 600 nm (for whole cells) or 280 nm (for extracts). The fluorescence values obtained from the fluorometer were then divided by the absorption readings to give the “brightness value”, an arbitrary unit independent of sample concentration. Other data handling details are dealt with either in the text or in the […]
# RAD54 promoter [4] = test: Specificity experiment: GFP reporter induction by agents that delay mitosis; conditions: transformed cells; concentration that inhibited cell growth to a similar extent to the MMS treatment regime
# Source text: These experiments involved exposing transformed cells to hydroxyurea and nocodazole which can delay mitosis in different ways. Hydroxyurea interferes with DNA synthesis at two levels: it inhibits ribonucleotide reductase, so limiting the supply of precursors for DNA synthesis, and it inhibits DNA ligase, an enzyme responsible for repairing nicks (single strand breaks) in the DNA backbone. In contrast nocodazole inhibits microtubule formation and thus primarily arrests cell growth by preventing the normal segregation of chromosomes during mitosis.
# [5] = FF18984 transformed with pWDH444, whole cells
# [6] = FF18984 transformed with yEGFP-444, whole cells
Compound,GFP antibody binding in Western blot (RAD54 promoter [1]),"Brightness (BU) + MMS, average (RAD54 promoter [2]; [5])",Brightness (BU) + MMS (RAD54 promoter [2]; [5]),"Brightness (BU) + MMS, average (RAD54 promoter [2]; [6])",Brightness (BU) + MMS (RAD54 promoter [2]; [6]),Time after induction at which fluorescence began to increase (RAD54 promoter [3]; 0.05% MMS),"Change in fluorescence (FIG. 10) (RAD54 promoter [3]; haploid Y486 transfected with pWDH444, cell extracts, 0.02% MMS)","Change in fluorescence (FIG. 10) (RAD54 promoter [3]; haploid Y486 transfected with pWDH444, cell extracts, 0.05% MMS)","Change in brightness relative to untransformed cells also exposed to MMS (FIG. 7) (RAD54 promoter [3]; pWDH443 transformed yeast Y485, Y486 and diploid Y485/486)","Change in fluorescence (RAD54 promoter [3]; pWDH443 transformed yeast Y485, Y486 and diploid Y485/486, 0.002% MMS)","Change in fluorescence (RAD54 promoter [3]; pWDH443 transformed yeast Y485, Y486 and diploid Y485/486, 0.01% MMS)","Change in fluorescence (FIG. 10) (RAD54 promoter [3]; untransformed Y486 cells, 0.02% MMS)","Change in fluorescence (FIG. 10) (RAD54 promoter [3]; untransformed Y486 cells, 0.05% MMS)",Induction of the GFP reporter gene (RAD54 promoter [4])
"COS(C)(=O)=O [MMS, Methyl Methane Sulphonate]",considerable increase in GFP antibody binding,average = 49 BU,45 BU and 54 BU and 48 BU,average = 96.7 BU,100 BU and 97 BU and 93 BU,one,increase in fluorescence,increase in fluorescence,increase in brightness,statistically significant increases in fluorescence,statistically significant increases in fluorescence,no significant effect,no significant effect,
NC(=O)NO [hydroxyurea],,,,,,,,,,,,,,no detectable induction of the GFP reporter gene
COC(=O)Nc1nc2ccc(C(=O)c3cccs3)cc2[nH]1 [nocodazole],,,,,,,,,,,,,,no detectable induction of the GFP reporter gene
